Data published in patent US20100267561A1, “HERBICIDAL PYRIDAZINONE DERIVATIVES” (priority 2007, published 2010).
Read-outs that look alike come from different tables or passages of the source.

Experiments:
Experiment in all cases: Test B pre-/postemergence plant response
Assay type in all cases: in vivo
[1] = tested on: bermudagrass (Cynodon dactylon); details: Cynodon dactylon, read-out: Plant response rating, Bermudagrass; for pest or weed control at 16 g/ha: 16 g ai/ha; for pest or weed control at 31 g/ha: 31 g ai/ha, 100 complete control; for pest or weed control at 62 g/ha: 62 g ai/ha; for pest or weed control at 125 g/ha: 125 g ai/ha
Outline: (§1)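 Seeds were sown and sprayed preemergence, while plants at 2 to 18 cm (1- to 4-leaf stage) got postemergence sprays. Compounds were formulated in a non-phytotoxic solvent mixture with surfactant. After 13 to 15 days in a greenhouse, injury was rated visually against untreated controls, 0 (no effect) to 100 (complete control).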

[2] = tested on: morningglory (Ipomoea coccinea); details: Ipomoea, read-out: Plant response rating, Morningglory; for pest or weed control at 16 g/ha: 16 g ai/ha; for pest or weed control at 31 g/ha: 31 g ai/ha, 100 complete control; for pest or weed control at 62 g/ha: 62 g ai/ha; for pest or weed control at 125 g/ha: 125 g ai/ha
Outline: as §1

[3] = tested on: velvetleaf (Abutilon theophrasti); details: Abutilon theophrasti, read-out: Plant response rating, Velvetleaf; for pest or weed control at 16 g/ha: 16 g ai/ha; for pest or weed control at 31 g/ha: 31 g ai/ha, 100 complete control; for pest or weed control at 62 g/ha: 62 g ai/ha; for pest or weed control at 125 g/ha: 125 g ai/ha
Outline: as §1

[4] = tested on: green foxtail (Setaria viridis); details: Setaria viridis, read-out: Plant response rating, Foxtail, Green; for pest or weed control at 16 g/ha: 16 g ai/ha; for pest or weed control at 31 g/ha: 31 g ai/ha, 100 complete control; for pest or weed control at 62 g/ha: 62 g ai/ha; for pest or weed control at 125 g/ha: 125 g ai/ha
Outline: as §1

wild oat (Avena fatua) = details: Avena fatua, read-out: Plant response rating, Oat, Wild; for pest or weed control at 16 g/ha: 16 g ai/ha; for pest or weed control at 31 g/ha: 31 g ai/ha, 100 complete control; for pest or weed control at 62 g/ha: 62 g ai/ha; for pest or weed control at 125 g/ha: 125 g ai/ha
Outline: as §1

[5] = tested on: blackgrass (Alopecurus myosuroides); details: Alopecurus myosuroides, read-out: Plant response rating, Blackgrass; for pest or weed control at 16 g/ha: 16 g ai/ha; for pest or weed control at 31 g/ha: 31 g ai/ha, 100 complete control; for pest or weed control at 62 g/ha: 62 g ai/ha; for pest or weed control at 125 g/ha: 125 g ai/ha
Outline: as §1

[6] = tested on: large crabgrass (Digitaria sanguinalis); details: Digitaria sanguinalis, read-out: Plant response rating, Crabgrass, Large; for pest or weed control at 16 g/ha: 16 g ai/ha; for pest or weed control at 31 g/ha: 31 g ai/ha, 100 complete control; for pest or weed control at 62 g/ha: 62 g ai/ha; for pest or weed control at 125 g/ha: 125 g ai/ha
Outline: as §1

[7] = tested on: wheat (Triticum aestivum); details: Triticum aestivum, read-out: Plant response rating, Wheat; for plant injury at 16 g/ha: 16 g ai/ha; for plant injury at 31 g/ha: 31 g ai/ha, 100 complete control; for plant injury at 62 g/ha: 62 g ai/ha; for plant injury at 125 g/ha: 125 g ai/ha
Outline: as §1

[8] = tested on: catchweed bedstraw (Galium aparine); details: Galium aparine, pre-emergence, Preemergence, read-out: Plant response rating, Galium
Outline: as §1

[9] = tested on: lambsquarters (Chenopodium album); details: Chenopodium album, read-out: Plant response rating, Lambsquarters; for pest or weed control at 16 g/ha: 16 g ai/ha; for pest or weed control at 31 g/ha: 31 g ai/ha, 100 complete control; for pest or weed control at 125 g/ha: 125 g ai/ha
Outline: as §1

[10] = tested on: downy bromegrass (Bromus tectorum); details: Bromus tectorum, read-out: Plant response rating, Bromegrass, Downy; for pest or weed control at 16 g/ha: 16 g ai/ha; for pest or weed control at 31 g/ha: 31 g ai/ha, 100 complete control; for pest or weed control at 62 g/ha: 62 g ai/ha; for pest or weed control at 125 g/ha: 125 g ai/ha
Outline: as §1

[11] = tested on: common (oilseed) sunflower (Helianthus annuus); details: Helianthus annuus, pre-emergence, Preemergence, read-out: Plant response rating, Sunflower
Outline: as §1

corn (Zea mays) = details: Zea mays; for Corn plant response rating (crop injury, 0 = no effect, 100 = complete kill) at 16 g/ha: 16 g ai/ha; for Corn plant response rating (crop injury, 0 = no effect, 100 = complete kill) at 31 g/ha: 31 g ai/ha, 100 complete control; for Corn plant response rating (crop injury, 0 = no effect, 100 = complete kill) at 62 g/ha: 62 g ai/ha; for Corn plant response rating (crop injury, 0 = no effect, 100 = complete kill) at 125 g/ha: 125 g ai/ha
Outline: as §1

[12] = tested on: giant foxtail (Setaria faberii); details: Setaria faberi, read-out: Plant response rating, Foxtail, Giant; for pest or weed control at 16 g/ha: 16 g ai/ha; for pest or weed control at 31 g/ha: 31 g ai/ha, 100 complete control; for pest or weed control at 62 g/ha: 62 g ai/ha; for pest or weed control at 125 g/ha: 125 g ai/ha
Outline: as §1

[13] = post-emergence, Postemergence, scale 0 to 100
[14] = post-emergence, Postemergence, scale 0 to 100, 0 no effect
[15] = pre-emergence, Preemergence, scale 0 to 100 (0 no effect, 100 complete control)
[16] = pre-emergence, Preemergence, 0 to 100 scale, 0 no effect
[17] = pre-emergence, Preemergence, scale 0 to 100
[18] = 16 g ai/ha, scale 0 to 100 (0 no effect, 100 complete control)
[19] = 31 g ai/ha, 0 to 100 scale, 0 no effect, 100 complete control

CCc1cc(-c2ccc(C(F)(F)F)cc2)nn1-c1c(O)cnn(C)c1=O [Compound 11, 4-[5-ethyl-3-[4-(trifluoromethyl)phenyl]-1H-pyrazol-1-yl]-5-hydroxy-2-methyl-3(2H)-pyridazinone]
pest or weed control at 16 g/ha [1, 13]: 100% | pest or weed control at 31 g/ha [1, 14]: 100% | pest or weed control at 62 g/ha [1, 13]: 100% | pest or weed control at 125 g/ha [1, 13]: 100% | pest or weed control at 16 g/ha [1, 15]: 100% | pest or weed control at 31 g/ha [1, 16]: 100% | pest or weed control at 62 g/ha [1, 17]: 100% | pest or weed control at 125 g/ha [1, 17]: 100% | pest or weed control at 16 g/ha [2, 13]: 0% | pest or weed control at 31 g/ha [2, 14]: 0% | pest or weed control at 62 g/ha [2, 13]: 0% | pest or weed control at 125 g/ha [2, 13]: 0% | pest or weed control at 16 g/ha [2, 15]: 0% | pest or weed control at 31 g/ha [2, 16]: 0% | pest or weed control at 62 g/ha [2, 17]: 0% | pest or weed control at 125 g/ha [2, 17]: 0% | pest or weed control at 16 g/ha [3, 13]: 0% | pest or weed control at 31 g/ha [3, 14]: 0% | pest or weed control at 62 g/ha [3, 13]: 0% | pest or weed control at 125 g/ha [3, 13]: 0% | pest or weed control at 16 g/ha [3, 15]: 0% | pest or weed control at 31 g/ha [3, 16]: 0% | pest or weed control at 62 g/ha [3, 17]: 0% | pest or weed control at 125 g/ha [3, 17]: 0% | pest or weed control at 16 g/ha [4, 13]: 85% | pest or weed control at 31 g/ha [4, 14]: 100% | pest or weed control at 62 g/ha [4, 13]: 100% | pest or weed control at 125 g/ha [4, 13]: 100% | pest or weed control at 16 g/ha [4, 15]: 100% | pest or weed control at 31 g/ha [4, 16]: 100% | pest or weed control at 62 g/ha [4, 17]: 100% | pest or weed control at 125 g/ha [4, 17]: 100% | pest or weed control at 16 g/ha (wild oat (Avena fatua); [13]): 100% | pest or weed control at 31 g/ha (wild oat (Avena fatua); [14]): 100% | pest or weed control at 62 g/ha (wild oat (Avena fatua); [13]): 100% | pest or weed control at 125 g/ha (wild oat (Avena fatua); [13]): 100% | pest or weed control at 16 g/ha (wild oat (Avena fatua); [15]): 80% | pest or weed control at 31 g/ha (wild oat (Avena fatua); [16]): 98% | pest or weed control at 62 g/ha (wild oat (Avena fatua); [17]): 98% | pest or weed control at 125 g/ha (wild oat (Avena fatua); [17]): 100% | pest or weed control at 16 g/ha [5, 13]: 100% | pest or weed control at 31 g/ha [5, 14]: 100% | pest or weed control at 62 g/ha [5, 13]: 100% | pest or weed control at 125 g/ha [5, 13]: 100% | pest or weed control at 16 g/ha [5, 15]: 100% | pest or weed control at 31 g/ha [5, 16]: 100% | pest or weed control at 62 g/ha [5, 17]: 100% | pest or weed control at 125 g/ha [5, 17]: 100% | pest or weed control at 16 g/ha [6, 13]: 98% | pest or weed control at 31 g/ha [6, 14]: 100% | pest or weed control at 62 g/ha [6, 13]: 100% | pest or weed control at 125 g/ha [6, 13]: 100% | pest or weed control at 16 g/ha [6, 15]: 90% | pest or weed control at 31 g/ha [6, 16]: 90% | pest or weed control at 62 g/ha [6, 17]: 100% | pest or weed control at 125 g/ha [6, 17]: 100% | plant injury at 16 g/ha [7, 13]: 90% | plant injury at 31 g/ha [7, 14]: 100% | plant injury at 62 g/ha [7, 13]: 100% | plant injury at 125 g/ha [7, 13]: 100% | plant injury at 16 g/ha [7, 15]: 90% | plant injury at 31 g/ha [7, 16]: 95% | plant injury at 62 g/ha [7, 17]: 95% | plant injury at 125 g/ha [7, 17]: 100% | pest or weed control at 16 g/ha [8, 18]: 0% | pest or weed control at 31 g/ha [8, 19]: 0% | pest or weed control at 62 g/ha ([8]; 62 g ai/ha, scale 0 to 100): 0% | pest or weed control at 125 g/ha ([8]; 125 g ai/ha, scale 0 to 100): 0% | pest or weed control at 16 g/ha [9, 13]: 0% | pest or weed control at 31 g/ha [9, 14]: 0% | pest or weed control at 62 g/ha ([9]; post-emergence, Postemergence, 62 g ai/ha, scale 0 to 100): 0% | pest or weed control at 125 g/ha [9, 13]: 0% | pest or weed control at 16 g/ha [9, 15]: 0% | pest or weed control at 31 g/ha [9, 16]: 0% | pest or weed control at 125 g/ha [9, 17]: 0% | pest or weed control at 16 g/ha [10, 13]: 85% | pest or weed control at 31 g/ha [10, 14]: 90% | pest or weed control at 62 g/ha [10, 13]: 98% | pest or weed control at 125 g/ha [10, 13]: 100% | pest or weed control at 16 g/ha [10, 15]: 50% | pest or weed control at 31 g/ha [10, 16]: 95% | pest or weed control at 62 g/ha [10, 17]: 98% | pest or weed control at 125 g/ha [10, 17]: 100% | pest or weed control at 16 g/ha [11, 18]: 0% | pest or weed control at 31 g/ha [11, 19]: 0% | pest or weed control at 62 g/ha ([11]; 62 g ai/ha, scale 0 to 100): 0% | pest or weed control at 125 g/ha ([11]; 125 g ai/ha, scale 0 to 100): 0% | Corn plant response rating (crop injury, 0 = no effect, 100 = complete kill) at 16 g/ha (corn (Zea mays); [13]): 100% | Corn plant response rating (crop injury, 0 = no effect, 100 = complete kill) at 31 g/ha (corn (Zea mays); [14]): 100% | Corn plant response rating (crop injury, 0 = no effect, 100 = complete kill) at 62 g/ha (corn (Zea mays); [13]): 100% | Corn plant response rating (crop injury, 0 = no effect, 100 = complete kill) at 125 g/ha (corn (Zea mays); [13]): 100% | Corn plant response rating (crop injury, 0 = no effect, 100 = complete kill) at 16 g/ha (corn (Zea mays); [15]): 70% | Corn plant response rating (crop injury, 0 = no effect, 100 = complete kill) at 31 g/ha (corn (Zea mays); [16]): 85% | Corn plant response rating (crop injury, 0 = no effect, 100 = complete kill) at 62 g/ha (corn (Zea mays); [17]): 95% | Corn plant response rating (crop injury, 0 = no effect, 100 = complete kill) at 125 g/ha (corn (Zea mays); [17]): 100% | pest or weed control at 16 g/ha [12, 13]: 100% | pest or weed control at 31 g/ha [12, 14]: 100% | pest or weed control at 62 g/ha [12, 13]: 100% | pest or weed control at 125 g/ha [12, 13]: 100% | pest or weed control at 16 g/ha [12, 15]: 90% | pest or weed control at 31 g/ha [12, 16]: 90% | pest or weed control at 62 g/ha [12, 17]: 100% | pest or weed control at 125 g/ha [12, 17]: 100%
